Source: US20240002404A1, “SALT OF PYRROLOPYRIMIDINE COMPOUND, CRYSTALLINE FORM THEREOF, AND APPLICATION THEREOF” (GUANGZHOU JOYO PHARMATECH CO., LTD, priority 2020, published 2024)
Where a name gives a salt, the structure may show the parent alone. Read-outs that look alike come from different tables or passages of the source. Each block holds one compound with its values, some of them ahead of it.

Legend:
[1] = Dynamic solubility evaluation in water and biological menstruums; assay type: physicochemical; settings: for pH: solubility sample
Experimental: The dynamic solubility of the crystal form B of the sulfate, the crystal form A of the maleate and the crystal form C of the hydrochloride in water and three biological menstruums was evaluated.

[2] = Solid state stability (HPLC purity after storage); assay type: physicochemical
Experimental: The chemical stability of the samples was determined by HPLC after placing the crystal form B of the sulfate, the crystal form A of the maleate and the crystal form C of the hydrochloride at 25° C./60% RH and 40° C./75% RH for 1 week, respectively. For the maleate, additional stability data for one month and two months storage at 25° C./60% RH and 40° C./75% RH (open) were collected, and using the crystal form A of maleate as the starting sample, stability data for 24 hours storage at 60° C. (closed) were collected.

[3] = Hygroscopicity evaluation by DVS; assay type: physicochemical; settings: 25° C./80% RH, listed as crystal form B of the sulfate
Experimental: The hygroscopicity of the crystal form B of the sulfate, the crystal form A of the maleate and the crystal form C of the hydrochloride was evaluated by DVS. The water adsorption (second adsorption curve) of the three salt forms at 25° C./80% RH is 7.62%, 1.35% and 4.77% respectively.

[4] = in vitro; settings: human, Caco-2, pH 7.4
Experimental: The transport buffer solution was HBSS (Hanks' balanced salt solution) and 10 mM HEPES [N-(2-hydroxyethyl)piperazine-N-(2-ethanesulfonic acid) solution], with a pH value of 7.40±0.05; Caco-2 cells were purchased from ATCC.
Caco-2 cells were seeded at 1×10^5 cells/cm^2 in 96-well BD insert plates of polyethylene terephthalate (PET), and the medium was refreshed every 4-5 days until day 21-28 to form a confluent monolayer. Test compounds were tested in a two-way format at 2 μM in duplicate. Digoxin was added at 10 μM in the two-way format, and nadolol and metoprolol were added at 2 μM in the two-way format. Final concentration of DMSO was adjusted to less than 1%. The plates were incubated in a CO2 incubator at 37±1° C. for 2 h with 5% CO2 at saturated humidity without shaking. All samples were mixed with acetonitrile containing an internal standard, and centrifuged at 4000 rpm for 10 min. 100 microliters of supernatant was diluted with 100 microliters of distilled water for LC/MS/MS analysis. By LC/MS/MS analysis, the concentrations of the test compounds and the reference compound in the initial test article solution, the test article solution and the test compound solution using the peak area ratio of the analyte to the internal standard. After the transport test, the integrity of the Caco-2 cell monolayer was determined by fluorescein yellow exclusion reaction, and the apparent permeability coefficient and efflux ratio were calculated.

[5] = FaSSIF, 1 hour, 37° C., feeding 10 mg/mL
[6] = FaSSIF, 2 hours, 37° C., feeding 10 mg/mL
[7] = FaSSIF, 4 hours, 37° C., feeding 10 mg/mL
[8] = FaSSIF, 24 hours, 37° C., feeding 10 mg/mL
[9] = FeSSIF, 1 hour, 37° C., feeding 10 mg/mL
[10] = FeSSIF, 2 hours, 37° C., feeding 10 mg/mL
[11] = FeSSIF, 4 hours, 37° C., feeding 10 mg/mL
[12] = FeSSIF, 24 hours, 37° C., feeding 10 mg/mL
[13] = H2O, 24 hours, 37° C., feeding 10 mg/mL
[14] = H2O, 1 hour, 37° C., feeding 10 mg/mL
[15] = H2O, 2 hours, 37° C., feeding 10 mg/mL
[16] = H2O, 4 hours, 37° C., feeding 10 mg/mL
[17] = SGF, 1 hour, 37° C., feeding 10 mg/mL
[18] = SGF, 2 hours, 37° C., feeding 10 mg/mL
[19] = SGF, 4 hours, 37° C., feeding 10 mg/mL
[20] = SGF, 24 hours, 37° C., feeding 10 mg/mL

Structure (SMILES): CN(c1ncnc2[nH]ccc12)[C@@H]1CCc2cc(C#N)nn2C1 [Crystal form A of maleate]
- S: solubility [1, 5]: 980 µg/mL
- S: solubility [1, 6]: 960 µg/mL
- S: solubility [1, 7]: 980 µg/mL
- S: solubility [1, 8]: 770 µg/mL
- S: solubility [1, 9]: 60 µg/mL
- S: solubility [1, 10]: 50 µg/mL
- S: solubility [1, 11]: 50 µg/mL
- S: solubility [1, 12]: 30 µg/mL
- S: solubility [1, 13]: 1700 µg/mL
- solubility at 1 h ([1]; SGF, 37 °C, simulated gastric fluid, thermodynamic from solid, SGF, 1 hour, 37° C., feeding 10 mg/mL, read-out: S: solubility): 6800 µg/mL
- solubility at 2 h ([1]; SGF, 37 °C, simulated gastric fluid, thermodynamic from solid, SGF, 2 hours, 37° C., feeding 10 mg/mL, read-out: S: solubility): 6400 µg/mL
- solubility at 4 h ([1]; SGF, 37 °C, simulated gastric fluid, thermodynamic from solid, SGF, 4 hours, 37° C., feeding 10 mg/mL, read-out: S: solubility): 6600 µg/mL
- solubility at 24 h ([1]; SGF, 37 °C, simulated gastric fluid, thermodynamic from solid, SGF, 24 hours, 37° C., feeding 10 mg/mL, read-out: S: solubility): 3900 µg/mL
- solubility at 1 h ([1]; water, 37 °C, water, thermodynamic from solid, H2O, 1 hour, 37° C., feeding 10 mg/mL, read-out: S: solubility): 2900 µg/mL
- solubility at 2 h ([1]; water, 37 °C, water, thermodynamic from solid, H2O, 2 hours, 37° C., feeding 10 mg/mL, read-out: S: solubility): 2800 µg/mL
- solubility at 4 h ([1]; water, 37 °C, water, thermodynamic from solid, H2O, 4 hours, 37° C., feeding 10 mg/mL, read-out: S: solubility): 2700 µg/mL

Structure (SMILES): CN(c1ncnc2[nH]ccc12)[C@@H]1CCc2cc(C#N)nn2C1 [Crystal form B of sulfate]
- Purity (area %) ([2]; 25° C./60% RH, 1 week): 97.98 area %
- Purity/Initial Purity (%) ([2]; 25° C./60% RH, 1 week): 99.57%
- Purity (area %) ([2]; 40° C./75% RH, 1 week): 98.06 area %
- Purity/Initial Purity (%) ([2]; 40° C./75% RH, 1 week): 99.65%
- Purity (area %) ([2]; Initial): 98.40 area %
- water adsorption (second adsorption curve) [3]: 7.62%
- S: solubility [1, 5]: 3400 µg/mL
- S: solubility [1, 6]: 3400 µg/mL
- S: solubility [1, 7]: 3300 µg/mL
- S: solubility [1, 8]: 2600 µg/mL
- S: solubility [1, 9]: 70 µg/mL
- S: solubility [1, 10]: 70 µg/mL
- S: solubility [1, 11]: 60 µg/mL
- S: solubility [1, 12]: 50 µg/mL
- S: solubility [1, 14]: 3700 µg/mL
- S: solubility [1, 15]: 3800 µg/mL
- S: solubility [1, 16]: 3700 µg/mL
- S: solubility [1, 13]: 4000 µg/mL
- S: solubility [1, 17]: 5300 µg/mL
- S: solubility [1, 18]: 5000 µg/mL
- S: solubility [1, 19]: 4800 µg/mL
- S: solubility [1, 20]: 5300 µg/mL
- pH ([1]; FaSSIF, 1 hour): 2.7
- pH ([1]; FaSSIF, 2 hours): 2.6
- pH ([1]; FaSSIF, 4 hours): 2.7
- pH ([1]; FaSSIF, 24 hours): 2.4
- pH ([1]; FeSSIF, 1 hour): 4.3
- pH ([1]; FeSSIF, 2 hours): 4.3
- pH ([1]; FeSSIF, 4 hours): 4.3
- pH ([1]; FeSSIF, 24 hours): 4.4
- pH ([1]; H2O, 1 hour): 2.0
- pH ([1]; H2O, 2 hours): 2.2
- pH ([1]; H2O, 4 hours): 2.1
- pH ([1]; H2O, 24 hours): 1.9
- pH ([1]; SGF, 1 hour): 1.7
- pH ([1]; SGF, 2 hours): 1.8
- pH ([1]; SGF, 4 hours): 1.8
- pH ([1]; SGF, 24 hours): 1.6

The next lines start with the values.

- S: solubility [1, 5]: 670 µg/mL
- S: solubility [1, 6]: 640 µg/mL
- S: solubility [1, 7]: 590 µg/mL
- S: solubility [1, 8]: 490 µg/mL
- S: solubility [1, 9]: 20 µg/mL
- S: solubility [1, 10]: 20 µg/mL
- S: solubility [1, 11]: 20 µg/mL
- S: solubility [1, 12]: 10 µg/mL
- S: solubility [1, 14]: 2700 µg/mL
- S: solubility [1, 15]: 2400 µg/mL
- S: solubility [1, 16]: 2300 µg/mL
- S: solubility [1, 13]: 2000 µg/mL
- S: solubility [1, 17]: 5600 µg/mL
- S: solubility [1, 18]: 5300 µg/mL
- S: solubility [1, 19]: 5100 µg/mL
- S: solubility [1, 20]: 4300 µg/mL
Structure (SMILES): CN(c1ncnc2[nH]ccc12)[C@@H]1CCc2cc(C#N)nn2C1 [Crystal form C of hydrochloride]

- Papp A→B at 2 h, 2 μM [4]: 0.04 ×10⁻⁶ cm/s
- Papp B→A at 2 h, 2 μM [4]: 13.9 ×10⁻⁶ cm/s
- efflux ratio at 2 h, 2 μM [4]: 349
Structure (SMILES): C[C@H]1O[C@@H](O[C@H]2[C@@H](O)C[C@H](O[C@H]3[C@@H](O)C[C@H](O[C@H]4CC[C@@]5(C)[C@H](CC[C@@H]6[C@@H]5C[C@@H](O)[C@]5(C)[C@@H](C7=CC(=O)OC7)CC[C@]65O)C4)O[C@@H]3C)O[C@@H]2C)C[C@H](O)[C@@H]1O [Digoxin]

- Papp A→B at 2 h, 2 μM [4]: 18.1 ×10⁻⁶ cm/s
Structure (SMILES): COCCc1ccc(OCC(O)CNC(C)C)cc1 (centres unmarked) [Metoprolol]
